Measurements: US20250382298A1, “NITROGEN-CONTAINING COMPOUND AND USE THEREOF” (SUZHOU GENHOUSE BIO CO., LTD., priority 2022, published 2025)
pIC50: −log10 of the molar value. Like-named read-outs stand apart in the source and are kept apart here.

How the values were obtained:
[1] = Pharmacokinetic test in rats; assay type: in vivo; conditions: SD rats; for AUC / Cmax / half-life: rat, plasma; for half-life: read-out: t½ (converted)
Description: In this example, the pharmacokinetic behavior of the compounds after intravenous injection (IV) and intragastric (PO) administration in SD rats was tested.
On the day of administration, rats were weighed for actual body weight and the administration volume was calculated. Each compound was tested in two groups with 3 rats in each group; one group was subjected to administration by single intravenous injection, and the other group was subjected to single intragastric administration. Whole blood samples were collected via the jugular vein at prescribed time points (0.25 h, 0.5 h, 1 h, 2 h, 4 h, 8 h, and 24 h after administration). After blood sample collection, the samples were immediately transferred to labeled commercial sample tubes containing K2-EDTA (0.85-1.15 mg), followed by centrifugation (3200×g, 4° C., 10 min) and plasma collection. The plasma was transferred to a pre-cooled centrifuge tube, frozen in dry ice, and then stored in an ultra-low temperature freezer at −60° C. or lower until the LC-MS/MS analysis.
Plasma concentrations were determined by the LC-MS/MS method. Plasma drug concentration data for the compounds were processed using a non-compartmental model in the WinNonlin Version 6.3 (Pharsight, Mountain View, CA) pharmacokinetic software. The relevant pharmacokinetic parameters were calculated by a linear-log trapezoidal method.

[2] = Stability test in human liver microsomes; assay type: in vitro ADME, humans; conditions: human liver microsomes 0.5 mg/mL, 1.0 μM substrate; for CLint scaled at 1 μM / half-life at 1 μM: pH 7.4; for CLint scaled at 1 μM: read-out: HLM 0.5 CLint(liver); for half-life at 1 μM: read-out: HLM 0.5 T½
Description: (§1) The phase I metabolic stability of the compounds in liver microsomes of CD-1 mice, Sprague-Dawley rats, beagle dogs, cynomolgus monkeys, and humans was assessed.
(§2) The animal and human liver microsomes used in the test system were purchased from Xenotech, Corning, or other qualified suppliers and stored in a freezer at a temperature below −60° C. prior to use.
(§3) The test samples and control compounds were separately incubated with animal and human liver microsomes at 37±1° C. for a period of incubation time up to 60 min. The samples were removed at the indicated time points, and the reaction was stopped with acetonitrile or another organic solvent containing an internal standard. After centrifugation, the resulting supernatants were assayed by the liquid chromatography-tandem mass spectrometry (LC-MS/MS) method.
(§4) 73.21 g of dipotassium hydrogen phosphate trihydrate and 10.78 g of potassium dihydrogen phosphate were dissolved in 4000 mL of ultrapure water. The solution was adjusted to pH 7.40±0.10 with 10% phosphoric acid or 1 M potassium hydroxide to make a final concentration of 100 mM.
(§5) The test sample powder was prepared into a stock solution at a certain concentration with DMSO or another organic solvent, which was then further diluted with a suitable organic solvent.
(§6) Microsomes of each species were diluted into a 2× working solution with a 100 mM potassium phosphate buffer. The final concentration of the microsomes in the reaction system was 0.5 mg/mL.
(§7) An appropriate amount of nicotinamide adenine dinucleotide phosphate (NADP) and isocitric acid (ISO) powder was weighed out, dissolved in a magnesium chloride solution, and shaken and mixed well. An appropriate amount of isocitrate dehydrogenase (IDH) was added, and the mixture was mixed well by gently turning upside down. The final concentrations in the reaction system were: 1 mM NADP, 1 mM magnesium chloride, 6 mM ISO, and 1 unit/mL IDH.
(§8) The stop solution was prepared with acetonitrile or another organic solvent containing an internal standard (tolbutamide or another suitable compound). The prepared stop solution was stored in a freezer at 2-8° C.
(§9) Incubation was performed in a 96-well plate. Eight incubation plates were prepared and designated T0, T5, T15, T30, T45, T60, Blank60, and NCF60, respectively. The first 6 plates corresponded to reaction time points of […], respectively. No test sample or control compound was added to the Blank60 plate, and samples were taken after 60 min of incubation. In the NCF60 plate, incubation was performed for 60 min using the potassium phosphate buffer instead of the NADPH regeneration system solution. Three replicates were made for samples in all conditions.
(§10) The microsomes and the test sample or control compound were mixed, and then the incubation plates Blank60, T5, T15, T30, T45, and T60 except for TO and NCF60 were placed in a 37° C. water bath for pre-incubation for about 10 min. In the incubation plate T0, a stop solution was first added, followed by addition of the NADPH regeneration system working solution, and 98 μL of the potassium phosphate buffer was added to each sample well of the incubation plate NCF60 to initiate the reaction. After the pre-incubation of the incubation plates Blank60, T5, T15, T30, T45, and T60 was completed, 98 μL of the NADPH regeneration system working solution was added to each sample well to initiate the reaction. The reaction temperature was 37±1° C., the final volume of the reaction was 200 μL, and the reaction system included 0.5 mg/mL microsomes, 1.0 μM substrate, 1 mM NADP, 6 mM ISO, and 1 unit/ml IDH.
(§11) At 5 min, 15 min, […], 45 min, and 60 min, a cold stop solution containing an internal standard was added to the reaction plate to stop the reaction.
(§12) All the reaction plates after the reaction was stopped were shaken well and centrifuged at 3220×g at 4° C. for 20 min. After the supernatant was diluted at a certain ratio, LC-MS/MS analysis was performed. […]

[3] = Stability test in rat liver microsomes; assay type: in vitro ADME, Sprague-Dawley rats; conditions: rat liver microsomes 0.5 mg/mL, 1.0 μM substrate; for CLint scaled at 1 μM / half-life at 1 μM: Sprague-Dawley, pH 7.4; for CLint scaled at 1 μM: read-out: RLM 0.5 CLint(liver); for half-life at 1 μM: read-out: RLM 0.5 T½
Description: as §1, §2, §3, §4, §5, §6, §7, §8, §9, §10, §11, §12

[4] = Stability test in mouse liver microsomes; assay type: in vitro ADME, CD-1 mice; conditions: mouse liver microsomes 0.5 mg/mL, 1.0 μM substrate; for CLint scaled at 1 μM / half-life at 1 μM: CD-1, pH 7.4; for CLint scaled at 1 μM: read-out: MLM 0.5 CLint(liver); for half-life at 1 μM: read-out: MLM 0.5 T½
Description: as §1, §2, §3, §4, §5, §6, §7, §8, §9, §10, §11, §12

[5] = molecular target: cytochrome oxidase P450 2C19 (Homo sapiens (Human), UniProt P33261); experiment: Inhibition of cytochrome oxidase P450 2C19; assay type: in vitro ADME; conditions: liver microsomes, CYP2C19
cytochrome oxidase P450 2C19, sequence (P33261 whole entry): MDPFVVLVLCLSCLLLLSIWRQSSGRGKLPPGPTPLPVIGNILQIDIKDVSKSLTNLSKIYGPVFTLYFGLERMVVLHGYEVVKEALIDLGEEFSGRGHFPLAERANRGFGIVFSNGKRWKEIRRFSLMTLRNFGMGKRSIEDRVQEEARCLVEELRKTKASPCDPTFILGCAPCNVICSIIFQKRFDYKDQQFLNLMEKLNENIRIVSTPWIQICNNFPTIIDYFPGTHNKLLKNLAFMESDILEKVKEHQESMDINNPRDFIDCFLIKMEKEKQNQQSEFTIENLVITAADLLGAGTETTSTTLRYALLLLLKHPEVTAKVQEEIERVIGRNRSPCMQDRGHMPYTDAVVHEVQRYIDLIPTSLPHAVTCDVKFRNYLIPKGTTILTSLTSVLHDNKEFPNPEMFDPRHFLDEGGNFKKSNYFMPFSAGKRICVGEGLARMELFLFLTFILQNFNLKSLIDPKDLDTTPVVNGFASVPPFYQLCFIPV

| SMILES | F ([1]; PO @5mpk) [%] | AUC ([1]; 5 mg/kg, PO @5mpk) [µM·h] | Cmax ([1]; 5 mg/kg, PO @5mpk) [nM] | half-life ([1]; 5 mg/kg, PO @5mpk) [h] | CLint scaled at 1 μM [2] [mL/min/kg] | half-life at 1 μM [2] [h] | CLint scaled at 1 μM [3] [mL/min/kg] | half-life at 1 μM [3] [h] | CLint scaled at 1 μM [4] [mL/min/kg] | half-life at 1 μM [4] [h] | pIC50 [5] | also measured |
| --- | --- | --- | --- | --- | --- | --- | --- | --- | --- | --- | --- | --- |
| Cc1cc(NC(=O)c2ccc(NS(=O)(=O)CCO)cc2N2CC3CCC(C3)C2)nc(N2CCC(F)(F)CC2)n1 [Compound 3] | 57 | 16.2 | 1330 | 7 | – | – | – | – | – | – | – | – |
| O=C(Nc1cc2ccccc2c(N2CCC(F)(F)CC2)n1)c1ccc(NS(=O)(=O)CCO)cc1N1CCC2(CC1)CC2 [Compound 6] | 23 | 8.92 | 509 | 55.8 | < 8.6 | > 2.42 | < 17.3 | > 2.42 | < 38 | > 2.42 | < 5.00 | – |
| O=C(Nc1cn2ccnc2c(N2CCC(F)(F)CC2)n1)c1ccc(NS(=O)(=O)CCO)cc1N1CCC2(CC1)CC2 [Compound 8] | 16 | 1.56 | 303 | 5.9 | < 8.6 | > 2.42 | < 17.3 | > 2.42 | 219 | 0.418 | < 5.00 | – |
| CS(=O)(=O)Nc1ccc(C(=O)Nc2cn3ccnc3c(N3CCC(F)(F)CC3)n2)c(N2CCC3(CC2)CC3)c1 [Compound 10] | – | – | – | – | < 8.6 | > 2.42 | 19.3 | 2.16 | 182 | 0.502 | – | – |
| O=C(Nc1cc2c(c(N3CCC(F)(F)CC3)n1)COC2)c1ccc(NS(=O)(=O)CCO)cc1N1CCC2(CC1)CC2 [Compound 14] | 25 | 1.92 | 351 | 6.4 | 22.3 | 0.933 | 34.3 | 1.21 | 54.1 | 1.69 | – | – |
| O=C(Nc1cc2ccsc2c(N2CCC(F)(F)CC2)n1)c1ccc(NS(=O)(=O)CCO)cc1N1CCC2(CC1)CC2 [Compound 15] | 27 | 9.67 | 540 | 22.8 | < 8.6 | > 2.42 | 17.2 | 2.42 | 50.6 | 1.81 | – | – |
| O=C(Nc1cn2ccnc2c(N2CCC(F)(F)CC2)n1)c1ccc(NS(=O)(=O)CCO)cc1N1CC2CCC(C2)C1 [Compound 17] | 39 | 3.2 | 582 | 4.9 | – | – | – | – | – | – | – | – |
| CS(=O)(=O)Nc1ccc(C(=O)Nc2cn3ccnc3c(N3CCC(F)(F)CC3)n2)c(N2CC3CCC(C3)C2)c1 [Compound 19] | 63 | 20.5 | 1240 | 12.2 | 11.6 | 1.79 | 27.3 | 1.52 | 52.3 | 1.75 | < 5.00 | – |
| O=C(Nc1cc2cccnc2c(N2CCC(F)(F)CC2)n1)c1ccc(NS(=O)(=O)CCO)cc1N1CCC2(CC1)CC2 [Compound 21] | 24.7 | 33.9 | 2090 | 10.6 | < 8.6 | > 2.42 | < 17.3 | > 2.42 | < 38 | > 2.42 | < 5.00 | – |
| O=C(Nc1cn2ncnc2c(N2CCC(F)(F)CC2)n1)c1ccc(NS(=O)(=O)CCO)cc1N1CCC2(CC1)CC2 [Compound 23] | – | – | – | – | < 8.6 | > 2.42 | < 17.3 | > 2.42 | < 38 | > 2.42 | – | – |
| O=C(Nc1cn2cnnc2c(N2CCC(F)(F)CC2)n1)c1ccc(NS(=O)(=O)CCO)cc1N1CCC2(CC1)CC2 [Compound 24] | – | – | – | – | – | – | – | – | – | – | – | HLM 0.5 CLint(liver) [2]: 9.4 mL/min/kg; HLM 0.5 T½ [2]: 2.22 h; RLM 0.5 CLint(liver) [3]: 29.5 mL/min/kg; RLM 0.5 T½ [3]: 1.41 h; MLM 0.5 CLint(liver) [4]: 64.7 mL/min/kg; MLM 0.5 T½ [4]: 1.41 h |
| O=C(Nc1cn2c(F)cnc2c(N2CCC(F)(F)CC2)n1)c1ccc(NS(=O)(=O)CCO)cc1N1CCC2(CC1)CC2 [Compound 34] | – | – | – | – | 1.9 | 15.3 | 4.4 | 9.33 | 14.3 | 6.34 | < 5.00 | F ([1]; PO @30mpk): 25.7%; AUC ([1]; 30 mg/kg, PO @30mpk): 62.5 µM·h; Cmax ([1]; 30 mg/kg, PO @30mpk): 3430 nM; half-life ([1]; 30 mg/kg, PO @30mpk): 66.3 h |
| CS(=O)(=O)Nc1ccc(C(=O)Nc2cc3cc[nH]c3c(N3CCC(F)(F)CC3)n2)c(N2CCC3(CC2)CC3)c1 [Compound 47] | – | – | – | – | 14.3 | 2.02 | 9 | 4.59 | 2.3 | 40.3 | 6.01 | – |
